Read-outs that look alike come from different tables or passages of the source.
Molecular target: human KHK-C (Homo sapiens (Human), UniProt P50053)
Experiment: KHK Biochemical Assay (IC50), ADP-Glo, KHK-C
Protocol: The His-tagged fusion protein was expressed using BL21 (DE3) with IPTG induction and purified using Ni-NTA column followed by dialysis into final buffer containing 25 mM Tris-HCl pH 8.0, 250 mM NaCl.
KHK Biochemical Assay (IC50)
Compounds were tested for KHK enzyme inhibition in a high-throughput 384-well assay format using the ADP-Glo assay (Promega) in buffer consisting of 50 mM Hepes (pH 7.4), 140 mM KCl, 5 mM MgCl2 and 0.01% Triton-X. 0.2 nM. […] Compounds were serially diluted (1:3) in DMSO.
The compounds were pre-incubated with 5 μL of 2× final enzyme concentration for 30 minutes before adding 5 μL of 2× final concentration of ATP and fructose. The plates were incubated at room temperature for 4 hours before adding ADP-Glo reagent to quench the enzyme reaction, followed by incubation at room temperature for 1 hour. The ADP-Glo detection reagent was then added to the plates and luminescence was measured on the Envision plate reader after 1 hour.

[1] = average of at least two separate assays
[2] = ADP-Glo, average of at least two separate assays

human KHK-C, sequence (P50053 whole entry): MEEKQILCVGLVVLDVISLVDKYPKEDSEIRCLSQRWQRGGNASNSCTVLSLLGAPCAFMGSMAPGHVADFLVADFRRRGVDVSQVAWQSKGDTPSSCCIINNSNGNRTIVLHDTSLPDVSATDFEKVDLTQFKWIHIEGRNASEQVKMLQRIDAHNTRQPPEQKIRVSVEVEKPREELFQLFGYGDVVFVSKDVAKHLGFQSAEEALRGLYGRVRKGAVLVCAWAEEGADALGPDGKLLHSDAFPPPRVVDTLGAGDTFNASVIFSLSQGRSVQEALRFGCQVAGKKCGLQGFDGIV

Compound	IC50 [1]	also measured
C[C@H]1[C@H](F)CN1c1nc(-c2ccc3c(c2)S(=O)(=O)C[C@H]3NS(C)(=O)=O)c2c(n1)C(F)(F)CC2 (single isomer, unassigned) [Example 680]	1.4 nM	–
NC(=O)c1ccc(-c2nc(N3CC4(CCC4)C3)nc3c2CCC3)cc1 [Example 416, 4-(2-(2-azaspiro[3.3]heptan-2-yl)-6,7-dihydro-5H-cyclopenta[d]pyrimidin-4-yl)benzamide]	> 5000 nM	–
COc1c(F)cc(-c2nc(N3C[C@@H](O)[C@@H]3C)nc3c2CCC3(F)F)cc1S(C)(=N)=O (stereo partly drawn) [Example 535, (5-(7,7-difluoro-2-((2S,3R)-3-hydroxy-2-methylazetidin-1-yl)-6,7-dihydro-5H-cyclopenta[d]pyrimidin-4-yl)-3-fluoro-2-methoxyphenyl)(imino)(methyl)-λ^6-sulfanone]	15.8 nM	–
C[C@H]1CCN1c1nc2c(c(-c3ccc4c(cnn4C(=O)CN)c3)n1)CCC2 [Example 237, (S)-2-amino-1-(5-(2-(2-methylazetidin-1-yl)-6,7-dihydro-5H-cyclopenta[d]pyrimidin-4-yl)-1H-indazol-1-yl)ethan-1-one]	–	IC50 [2]: 26.7 nM
C[C@H]1[C@H](O)CN1c1nc(-c2cc3c(c(S(C)(=N)=O)c2)OCC3)c2c(n1)C(F)(F)CC2 (stereo partly drawn) [Example 716, (5-(7,7-difluoro-2-((2S,3R)-3-hydroxy-2-methylazetidin-1-yl)-6,7-dihydro-5H-cyclopenta[d]pyrimidin-4-yl)-2,3-dihydrobenzofuran-7-yl)(imino)(methyl)-λ^6-sulfanone]	3.8 nM	–
C[C@H]1CCN1c1nc2c(c(-c3ccc4nn(C(=O)CN)cc4c3)n1)CCC2 [Example 238, (S)-2-amino-1-(5-(2-(2-methylazetidin-1-yl)-6,7-dihydro-5H-cyclopenta[d]pyrimidin-4-yl)-2H-indazol-2-yl)ethan-1-one]	–	IC50 [2]: 68.3 nM
C[C@H]1CCN1c1nc(-c2ccc([C@@H](N)CS(C)(=O)=O)cc2)c2c(n1)C(F)(F)CC2 (single isomer, unassigned) [Example 776]	2.8 nM	–
5-(7,7-difluoro-2-((2S,3R)-3-hydroxy-2-methylazetidin-1-yl)-6,7-dihydro-5H-cyclopenta[d]pyrimidin-4-yl)-2,3-dihydrospiro[indene-1,3′-[1,4]oxazepan]-5′-one [Example 552]	39.2 nM	–
C[C@H]1CCN1c1nc(N2CC3CC3C2)cc(C(F)(F)F)n1 (stereo partly drawn) [Reference Compound 1b, 3-(2-((S)-2-methylazetidin-1-yl)-6-(trifluoromethyl)pyrimidin-4-yl)-3-azabicyclo[3.1.0]hexane, reference compound]	–	IC50: 13100 nM
C[C@H]1[C@H](O)CN1c1nc(-c2ccc(OC(F)F)c([S@](C)(=N)=O)c2)c2c(n1)C(F)(F)CC2 (single isomer, unassigned) [Example 534]	32 nM	–
C[C@@H]1N(c2nc(-c3ccc4c(c3)S(=O)(=O)C[C@H]4NS(C)(=O)=O)c3c(n2)C(F)(F)CC3)CC1(F)F (single isomer, unassigned) [Example 682]	4 nM	–
C[C@H]1[C@H](O)CN1c1nc(-c2ccc3c(c2)C(F)(F)CC3NS(C)(=O)=O)c2c(n1)C(F)(F)CC2 (stereo partly drawn) [Example 633, N-(5-(7,7-difluoro-2-((2S,3R)-3-hydroxy-2-methylazetidin-1-yl)-6,7-dihydro-5H-cyclopenta[d]pyrimidin-4-yl)-3,3-difluoro-2,3-dihydro-1H-inden-1-yl)methanesulfonamide]	2 nM	–
C[C@H]1CCC(=O)N1c1nc2c(c(-c3ccc(C(N)=O)cc3)n1)CCC2 [Example 419, (S)-4-(2-(2-methyl-5-oxopyrrolidin-1-yl)-6,7-dihydro-5H-cyclopenta[d]pyrimidin-4-yl)benzamide]	> 5000 nM	–
N#CC1CCN1c1nc2c(c(-c3ccc(C(N)=O)cc3)n1)CCC2 (stereo not drawn) [Example 458, 4-(2-(2-cyanoazetidin-1-yl)-6,7-dihydro-5H-cyclopenta[d]pyrimidin-4-yl)benzamide]	57.2 nM	–
COc1ccc(-c2nc(N3C[C@@H](O)[C@@H]3C)nc3c2CCC3(F)F)cc1S(=N)(=O)C1CC1 (stereo partly drawn) [Example 538, cyclopropyl(5-(7,7-difluoro-2-((2S,3R)-3-hydroxy-2-methylazetidin-1-yl)-6,7-dihydro-5H-cyclopenta[d]pyrimidin-4-yl)-2-methoxyphenyl)(imino)-λ^6-sulfanone]	2.3 nM	–
CS(=O)(=O)N[C@H]1COc2cc(-c3nc(N4CC[C@H]4C(F)F)nc4c3CCC4(F)F)ccc21 (single isomer, unassigned) [Example 546]	23.9 nM	–
C[C@H]1CCN1c1nc(-c2cccc(NS(C)(=N)=O)c2)c2c(n1)C(F)(F)CC2 (stereo partly drawn) [Example 684, 4-[3-[(amino-methyl-oxo-λ^6-sulfanylidene)amino]phenyl]-7,7-difluoro-2-[(2S)-2-methylazetidin-1-yl]-5,6-dihydrocyclopenta[d]pyrimidine]	3.8 nM	–
C[C@H]1[C@H](O)CN1c1nc(-c2ccc3c(c2)CC[C@]32COCC(=O)N2)c2c(n1)C(F)(F)CC2 (single isomer, unassigned) [Example 550]	5 nM	–
NC(=O)c1ccc(-c2nc(N3CC4(COC4)C3)nc3c2CCC3)cc1 [Example 417, 4-(2-(2-oxa-6-azaspiro[3.3]heptan-6-yl)-6,7-dihydro-5H-cyclopenta[d]pyrimidin-4-yl)benzamide]	> 5000 nM	–
COc1c(F)cc(-c2nc(N3C[C@@H](O)[C@@H]3C)nc3c2CCC3(F)F)cc1[S@@](C)(=N)=O (single isomer, unassigned) [Example 536]	6.1 nM	–
C[C@H]1[C@H](O)CN1c1nc(-c2ccc3c(c2)CC[C@@]32NC(=O)NC2=O)c2c(n1)C(F)(F)CC2 [Example 485, (R)-5′-(7,7-difluoro-2-((2S,3R)-3-hydroxy-2-methylazetidin-1-yl)-6,7-dihydro-5H-cyclopenta[d]pyrimidin-4-yl)-2′,3′-dihydrospiro[imidazolidine-4,1′-indene]-2,5-dione]	22.6 nM	–
COc1ccc(-c2nc(N3C[C@@H](O)[C@@H]3C)nc3c2CCC3(F)F)cc1[S@](=N)(=O)C1CC1 (single isomer, unassigned) [Example 540]	13.5 nM	–
C[C@H]1CCN1c1nc2c(c(-c3ccc(Cl)c(S(C)(=N)=O)c3)n1)CCC2 (stereo partly drawn) [Example 727]	> 500 nM	–
C[C@H]1CCN1c1nc(-c2ccc([C@H](N)CS(C)(=O)=O)cc2)c2c(n1)C(F)(F)CC2 (single isomer, unassigned) [Example 775]	4.3 nM	–
CS(=O)(=O)N[C@H]1COc2cc(-c3nc(N4CCC4C(F)F)nc4c3CCC4(F)F)ccc21 (stereo partly drawn) [Example 544, N-((3R)-6-(2-(2-(difluoromethyl)azetidin-1-yl)-7,7-difluoro-6,7-dihydro-5H-cyclopenta[d]pyrimidin-4-yl)-2,3-dihydrobenzofuran-3-yl)methanesulfonamide]	1.1 nM	–
C[C@H]1CCN1c1nc(-c2ccc3c(c2)C(NS(C)(=O)=O)CC3)c2c(n1)C(F)(F)CC2 (stereo partly drawn) [Example 607]	0.9 nM	–
C[C@H]1[C@H](O)CN1c1nc2c(c(-c3ccc4cnc(N)cc4c3)n1)CCC2 [Example 448, (2S,3R)-1-[4-(3-amino-6-isoquinolyl)-6,7-dihydro-5H-cyclopenta[d]pyrimidin-2-yl]-2-methyl-azetidin-3-ol]	121 nM	–
